According to the NIST ThermoML archive (doi:10.1016/j.jct.2004.02.001):
Where “and” joins values, the source holds several entries; their conditions need not be identical. Equal entries are not always repeated.

Assays:
[1] = for vapor or sublimation pressure: Calculated from knudsen effusion weight loss; for Triple point temperature: DTA
[2] = Molar enthalpy of transition or fusion; conditions: DSC

CCCCc1ccc(C(=O)O)cc1 [4-butylbenzoic acid]
[1], Crystal 1
Conditions | vapor or sublimation pressure
333.16 K | 0.000164 kPa and 0.000162 kPa
335.16 K | 0.000211 kPa and 0.000212 kPa
337.14 K | 0.000263 kPa and 0.000262 kPa and 0.000261 kPa
339.17 K | 0.000323 kPa and 0.000328 kPa and 0.00033 kPa
341.17 K | 0.000422 kPa and 0.00042 kPa and 0.000408 kPa
343.16 K | 0.00052 kPa and 0.000522 kPa
345.15 K | 0.000645 kPa and 0.000629 kPa and 0.000622 kPa
347.13 K | 0.000804 kPa and 0.000786 kPa and 0.00078 kPa
349.15 K | 0.000994 kPa and 0.000968 kPa and 0.000978 kPa

Conditions | Molar enthalpy of transition or fusion, Crystal 1 [kcal/mol] | Molar enthalpy of transition or fusion, Crystal 2 [kcal/mol] | Molar enthalpy of transition or fusion, Nematic liquid crystal [kcal/mol] | Triple point temperature, Crystal 1 [K] | Triple point temperature, Crystal 2 [K] | Triple point temperature, Nematic liquid crystal [K]
[1] | – | – | – | 374.6 | 309.64 | 387.98
[2] | 2.77 | 1.12 | 0.182 | – | – | –

CCc1ccc(C(=O)O)cc1 [4-ethylbenzoic acid]
[1], Crystal
Conditions | vapor or sublimation pressure
321.17 K | 0.000214 kPa and 0.000211 kPa
323.16 K | 0.000272 kPa and 0.000265 kPa and 0.000263 kPa
325.22 K | 0.000347 kPa and 0.000335 kPa
327.17 K | 0.000419 kPa and 0.000418 kPa and 0.000436 kPa
329.34 K | 0.00055 kPa and 0.000542 kPa and 0.000527 kPa
331.2 K | 0.000666 kPa and 0.000651 kPa and 0.000637 kPa
333.14 K | 0.000826 kPa and 0.000818 kPa and 0.000803 kPa
335.25 K | 0.00103 kPa and 0.00101 kPa and 0.001 kPa

Crystal
Conditions | Molar enthalpy of transition or fusion [kcal/mol] | Triple point temperature [K]
[1] | – | 385.2
[2] | 3.06 | –

CCCCCCCc1ccc(C(=O)O)cc1 [4-heptylbenzoic acid]
[1], Crystal 1
Conditions | vapor or sublimation pressure
353.16 K | 0.000119 kPa and 0.000121 kPa and 0.000116 kPa
355.19 K | 0.000149 kPa and 0.000151 kPa
357.19 K | 0.000191 kPa and 0.000193 kPa and 0.000189 kPa
359.18 K | 0.000239 kPa and 0.00024 kPa
361.17 K | 0.000312 kPa and 0.0003 kPa and 0.000304 kPa
363.2 K | 0.000392 kPa and 0.000381 kPa
365.18 K | 0.000484 kPa and 0.000482 kPa and 0.000475 kPa
367.14 K | 0.000608 kPa and 0.000602 kPa and 0.000595 kPa
369.2 K | 0.000771 kPa and 0.000764 kPa and 0.000751 kPa

Conditions | Molar enthalpy of transition or fusion, Crystal 1 [kcal/mol] | Molar enthalpy of transition or fusion, Crystal 2 [kcal/mol] | Molar enthalpy of transition or fusion, Nematic liquid crystal [kcal/mol] | Triple point temperature, Crystal 1 [K] | Triple point temperature, Crystal 2 [K] | Triple point temperature, Nematic liquid crystal [K]
[1] | – | – | – | 374.52 | 320.17 | 393.11
[2] | 3.42 | 1.77 | 0.239 | – | – | –

CCCCCCc1ccc(C(=O)O)cc1 [4-hexylbenzoic acid]
[1], Crystal 1
Conditions | vapor or sublimation pressure
347.08 K | 0.00015 kPa and 0.000151 kPa and 0.000146 kPa
349.19 K | 0.000193 kPa and 0.000191 kPa and 0.000189 kPa
351.19 K | 0.000245 kPa and 0.000243 kPa and 0.000232 kPa
353.14 K | 0.000298 kPa and 0.000293 kPa and 0.000304 kPa
355.25 K | 0.000391 kPa and 0.000388 kPa and 0.000381 kPa
357.16 K | 0.000485 kPa and 0.00047 kPa and 0.000468 kPa
359.27 K | 0.000619 kPa and 0.000614 kPa and 0.000605 kPa
361.35 K | 0.000768 kPa and 0.000764 kPa and 0.000736 kPa
363.14 K | 0.000951 kPa and 0.000946 kPa and 0.000919 kPa

Conditions | Molar enthalpy of transition or fusion, Crystal 1 [kcal/mol] | Molar enthalpy of transition or fusion, Crystal 3 [kcal/mol] | Triple point temperature, Crystal 1 [K] | Triple point temperature, Nematic liquid crystal [K]
[1] | – | – | 370.64 | 385.87
[2] | 0.227 | 3.08 | – | –
